Laboratory results as given in patent publication US7507739B2, “6-[(substituted)phenyl]triazolopyrimidines as anticancer agents” (Wyeth, priority 2003, dated 2009).
Marks after values point to notes of the source that are not given here.

What was measured:
[1] = test system: pure tubulin; assay: Tubulin polymerization test with pure tubulin without GTP; format: biochemical, bovine; conditions: no GTP
Summary of the method: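 GTP-free polymerization using >99% pure bovine brain tubulin in PEM buffer (pH 6.9); centrifuged supernatant added to compounds. Duplicates at six 3-fold dilutions from 24.3 μM, read at 35°.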

[2] = test system: DLD1 Human Colon Carcinoma; assay: Human tumor xenograft test, DLD1; format: in vivo; conditions: days 1, 5, 9, 13
[3] = test system: LOX Human Melanoma; assay: Human tumor xenograft test, LOX; format: in vivo, athymic mice; conditions: for tumor growth inhibition (activity call): LOX melanoma; for T/C on day 0 / T/C on day 7 / T/C on day 13: LOX, days 1, 5, 9, 13
Protocol: The ability of compounds of this invention to inhibit tumor growth in animals is studied in the athymic mouse xenograft standard pharmacological test. Female nu/nu mice in an outbred albino background are obtained from Charles River Laboratories (Wilmington, Mass.). Animals are injected subcutaneously on the flank with the desired tumor cell suspension. Several days later, mice with tumors of approximately 150 mm^3 are selected from those injected (staged) and randomly distributed into groups of 5-10. The day of staging is called day 0. Compounds of the invention, usually formulated in saline (exceptions are noted in tables), are administered to animals by intravenous injection or oral gavage on various schedules starting on day 0 or 1, as noted in the tables. The control group in each experiment is dosed with vehicle on the same schedule. Tumor size is measured every 3-7 days with calipers in two orthogonal dimensions, and tumor volume is calculated from the formula volume=[(length×width^2)/2].
Tumor/Control (T/C) is obtained by dividing the mean tumor volume of the treated group by the mean tumor volume of the control group on each measurement day. A treatment dose is defined as active if it produced a statistically significant T/C of 0.50 or less. A p value≦0.05, determined by one-side Student's t-test, is required for statistical significance. A treatment dose is defined as toxic if more than 10% of the animals died from a compound-related toxicity.

[4] = test system: MAP-rich tubulin; assay: Tubulin polymerization test with MAP-rich tubulin; format: biochemical, bovine; conditions: 0.3 μM compound, 20 min, fold enhancement over control
Summary of the method: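 Bovine brain MAP-rich tubulin (1.3 mg/mL) in PEM buffer pH 6.9 with 1 mM GTP, compounds at 0.3 μM final (0.3% DMSO), 24° for 60 min. Turbidity read at 340 nm each minute, baseline-subtracted; mean A340 at 20 min divided by solvent control gives fold enhancement.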

**Q.** What does the source list for CN(C)CCCOc1cc(F)c(-c2c(Cl)nc3ncnn3c2NCC(F)(F)F)c(F)c1.Cl [Example 4a, 5-Chloro-6-{4-[3-(dimethylamino)propoxy]-2,6-difluorophenyl}-N-(2,2,2-trifluoroethyl)[1,2,4]triazolo[1,5-a]pyrimidin-7-amine Hydrogen chloride Salt]?
**A.** absorbance increase, polymerization of pure tubulin ([1]; 2.7 μM): no effect; absorbance increase, polymerization of pure tubulin ([1]; 8.1 μM): lower and less rapid increase; A340 at 0 min ([1]; 24.3 μM): 0; A340 at 5 min ([1]; 24.3 μM): 0.14; A340 at 10 min ([1]; 24.3 μM): 0.16; A340 at 15 min ([1]; 24.3 μM): 0.16; A340 at 20 min ([1]; 24.3 μM): 0.15; absorbance increase, polymerization of pure tubulin ([1]; 24.3 μM, first 5 min): rapid increase in absorbance; T/C on day 0 ([2]; DLD1, 10 mg/kg IV): 1.00; T/C on day 7 ([2]; DLD1, 10 mg/kg IV): 0.56; T/C on day 14 ([2]; DLD1, 10 mg/kg IV): 0.68; T/C on day 21 ([2]; DLD1, 10 mg/kg IV): 0.74; T/C on day 0 ([2]; DLD1, 20 mg/kg IV): 1.00; T/C on day 7 ([2]; DLD1, 20 mg/kg IV): 0.55; T/C on day 14 ([2]; DLD1, 20 mg/kg IV): 0.44; T/C on day 21 ([2]; DLD1, 20 mg/kg IV): 0.61; T/C on day 0 ([2]; DLD1, 25 mg/kg IV): 1.00; T/C on day 7 ([2]; DLD1, 25 mg/kg IV): 0.63; T/C on day 14 ([2]; DLD1, 25 mg/kg IV): 0.49; T/C on day 21 ([2]; DLD1, 25 mg/kg IV): 0.48; tumor growth inhibition (activity call) ([3]; 1 mg/kg intravenously on days 1, 5, 9, and 13): not at 1 mg/kg; tumor growth inhibition (activity call) ([3]; 6 and 3 mg/kg intravenously on days 1, 5, 9, and 13): active; T/C on day 0 ([3]; 1 mg/kg IV): 1.00; T/C on day 7 ([3]; 1 mg/kg IV): 0.80; T/C on day 13 ([3]; 1 mg/kg IV): 0.79; T/C on day 0 ([3]; 3 mg/kg IV): 1.00; T/C on day 7 ([3]; 3 mg/kg IV): 0.20**; T/C on day 13 ([3]; 3 mg/kg IV): 0.19**; T/C on day 0 ([3]; 6 mg/kg IV): 1.00; T/C on day 7 ([3]; 6 mg/kg IV): 0.21**; T/C on day 13 ([3]; 6 mg/kg IV): 0.14**; A340 Compound/A340 Control [4]: 8.1
